Laboratory results published in PubChem BioAssay AID1259347.
pEC50: −log10 of the molar value. Active and inactive are the calls of the source.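 How the source made its calls: active means compounds raising absorbance, a cell survival measure, over 1.5-fold at the top dose, rising with dose; inactive means the rest.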

Experiments:
[1] = survival after telomere uncapping, modulators, dose response, cell-based, HCT116, Ad-hTR-mut infection, MTT (AID 1259347); details: HCT116 Ad-hTR-mut infected, survival, MTT 4 d; measured here: second series; at 10 µM; stronger effect = higher value
[2] = system: HCT116 Ad-hTR-mut infected, survival, MTT 4 d; assay: as above

Row | Structure (SMILES) | fold survival [1] | pEC50 [2] | EC50 [2]
1 | Cc1nc2cc(-c3ccc(Br)cc3)nn2c(C)c1CCC(=O)O | 1.44 | > 5.00 | 
2 | C/C(=C\C(=O)Nc1ccccc1C(=O)O)c1ccc2ccccc2c1 |  |  | > 0.1 µM (inactive)
3 | Cc1ccc(C(=O)Nc2ccc(S(=O)(=O)O)c3cc(S(=O)(=O)O)cc(S(=O)(=O)O)c23)cc1NC(=O)c1cccc(NC(=O)Nc2cccc(C(=O)Nc3cc(C(=O)Nc4ccc(S(=O)(=O)O)c5cc(S(=O)(=O)O)cc(S(=O)(=O)O)c45)ccc3C)c2)c1 | 2.65 | > 5.00 | 
